Laboratory results published in patent US9861604B2, “Coriolus versicolor extracts, methods of isolating biologically-active compounds, and uses thereof” (priority 2012, dated 2018).

Legend:
Format in all cases: cell-based, human
[1] = test system: Glioblastoma (T98G) cells; assay: Matrigel Invasion Chamber tumor cell invasion assay, T98G; conditions: 25 μg/ml 18 hr, invasion 24 hr; FIG. 22
Experimental: Cell invasiveness was studied using BD BioCoat™ Matrigel™ Invasion Chamber (BD Biosciences). T98G cells suspended in MEM containing 1% FBS, 1% penicillin-streptomycin and 1% sodium pyruvate were seeded overnight on top of gel in each chamber. Bicarbonate based culture medium was added into the bottom wells of the plate. After incubation, the cells were treated with ethanol extract of C. versicolor/Cove-1 for 18 hr. The chambers were then transferred to a new plate with each well containing MEM supplemented with 10% FBS. Cells were allowed to invade through the matrices at 37° C. for another 24 hr. After the invasion assay, invaded cells on the lower surface of the chamber were fixed with 100% methanol for 2 min, and stained with Crystal Violet. The number of invading cells was quantified by counting under a light microscope.
Specifically, the effect of C. versicolor on cancer cell invasiveness was studied using a Matrigel Invasion Chamber. […] The number of invading cells was quantified by counting under a light microscope.
Specifically, the effect of 9-KODE methyl ester on cell invasiveness was studied using Matrigel Invasion Chamber. Glioblastoma (T98G) cells were treated with 9-KODE methyl ester for 18 hr, and then the cells were allowed to invade through the matrices for another 24 hr. The number of invading cells was quantified by counting under a light microscope.

[2] = test system: MMP-3; assay: TNF-α induced MMP-3 protein expression in T98G cells (ELISA); conditions: 10, 25 and 50 μg/ml 18 hr, then TNF-α 10 ng/ml 24 hr, FIG. 17
Experimental: T98G cells were pretreated with different batches of ethanol extract of C. versicolor for 18 hr, and then treated with recombinant human TNF-α (10 ng/ml) for another 24 hr. Protein levels of MMP-3 in the cell culture supernatants were analyzed by enzyme-linked immunosorbent assays (ELISA) using commercially available assay kits (R&D Systems).

[3] = test system: T98G cells; assay: MTT assay on T98G cells; conditions: 10, 25 and 50 μg/ml, time course of 48 hr, FIG. 19
Experimental: T98G cells were incubated with different batches of ethanol extract or purified compounds of C. versicolor for 48 hr. After treatment, MTT (3-[4,5-dimethylthiazol-2-yl]-2,5-di-phenyltetrazolim bromide) (Sigma) was added to the medium at a final concentration of 1 mg/ml and followed by 2 hr incubation at 37° C. MTT formazan formed was then dissolved in 200 μl of isopropanol and the absorbance of the supernatant was measured at 570 nm using a 96-well microplate reader.

[4] = test system: MMP-3; assay: TNF-α induced MMP-3 mRNA level in T98G cells (TaqMan); conditions: 10, 25 and 50 μg/ml 18 hr, then TNF-α 10 ng/ml 3 hr, FIG. 16
Experimental: Glioblastoma (T98G, brain cells) cells were pretreated with different batches of ethanol extract or purified compounds of C. versicolor for 18 hr, and then treated with recombinant human TNF-α (10 ng/ml) for another 3 hr. Total RNA extraction was performed by TRIzol reagent (Invitrogen) according to the manufacturer's instructions. Total RNA was reverse transcribed by Superscript II reverse transcriptase (Invitrogen) with oligo (dT) primers. MMP-3 mRNA levels were analyzed by TaqMan Gene Expression Assays (Applied Biosystems).
Briefly, glioblastoma (T98G; brain cells) cells were pretreated with MPUB-EtOH at different concentrations (1, 10 and 50 ug/ml) for 18 hrs, and then treated with recombinant human TNFα (10 ng/ml) for 3 hrs. MMP-3 mRNA levels were analyzed by TaqMan Gene Expression Assays. […] A p value of <0.05 (*) was considered statistically significant.

CCCCC/C=C/C=C/C(=O)CCCCCCCC(=O)OC [Cove-1, 9-oxo-10E,12E-octadecadienoic acid methyl ester]
T98G cell invasiveness (number of invading cells) [1]: reduced the invasiveness of T98G significantly
TNF-α induced MMP-3 protein expression [2]: inhibited TNF-α induced MMP-3 protein expression
metabolic activities of the cells (MTT) [3]: no significant differences in the metabolic activities
TNF-α induced MMP-3 mRNA level [4]: suppressed TNF-α induced MMP-3 mRNA level
